Measurements taken from PubChem BioAssay AID248 (DTP/NCI, 2004).
Several values for one entry are separate records, joined by “and”; a condition that tells them apart may be missing. Equal entries are not always repeated. Inconclusive results and toxic doses are left out.

System: L1210 leukemia ip in BDF1 mice, survival T/C
Assay: NCI In Vivo Anticancer Drug Screen. Data for tumor model L1210 Leukemia (intraperitoneal) in B6D2F1 (BDF1) mice
Conditions: endpoint: mean survival time, higher = longer survival
How it was run: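 Antitumor effect is assessed in tumor-bearing animals. Survival in the compound arm is compared with a vehicle-dosed control arm and expressed as their quotient.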

[1] = dose: 100.0 mg/kg/injection, schedule: Q01DX001 (ip), vehicle: saline with Tween-80
[2] = dose: 200.0 mg/kg/injection, schedule: Q01DX001 (ip), vehicle: saline with Tween-80
[3] = dose: 100.0 mg/kg/injection, schedule: Q04DX003 (ip), vehicle: saline
[4] = dose: 100.0 mg/kg/injection, schedule: Q04DX003 (ip), vehicle: Klucel (hydroxypropylcellulose) (HPC)
[5] = dose: 100.0 mg/kg/injection, schedule: Q01DX009 (ip), vehicle: saline
[6] = dose: 100.0 mg/kg/injection, schedule: Q01DX001 (ip), vehicle: saline
[7] = dose: 200.0 mg/kg/injection, schedule: Q01DX001 (ip), vehicle: saline
[8] = dose: 400.0 mg/kg/injection, schedule: Q01DX001 (ip), vehicle: saline
[9] = dose: 100.0 mg/kg/injection, schedule: Q04DX003 (ip), vehicle: saline with Tween-80
[10] = dose: 200.0 mg/kg/injection, schedule: Q04DX003 (ip), vehicle: saline with Tween-80
[11] = dose: 400.0 mg/kg/injection, schedule: Q04DX003 (ip), vehicle: saline with Tween-80

COC(=O)C1CC(=O)c2ccc(OC)cc21 (stereo not drawn)
T/C (dose: 100.0 mg/kg/injection, schedule: Q01DX001 (ip), vehicle: Klucel (hydroxypropylcellulose) (HPC)): 102 % of control
T/C (dose: 200.0 mg/kg/injection, schedule: Q01DX001 (ip), vehicle: Klucel (hydroxypropylcellulose) (HPC)): 92 % of control
T/C (dose: 400.0 mg/kg/injection, schedule: Q01DX001 (ip), vehicle: Klucel (hydroxypropylcellulose) (HPC)): 100 % of control

Nc1ccnc(C(F)(F)F)n1
T/C (dose: 50.0 mg/kg/injection, schedule: Q01DX Z (ip), vehicle: methylcellulose (MC)): 93 % of control
T/C (dose: 100.0 mg/kg/injection, schedule: Q01DX Z (ip), vehicle: methylcellulose (MC)): 90 % of control

CCCC(/C=N/Nc1ccc([N+](=O)[O-])cc1[N+](=O)[O-])=C\c1ccccc1
T/C [1]: 88 % of control
T/C [2]: 88 % of control

CC(=NC(c1ccccc1)c1ccccc1)N(C)C
T/C (dose: 100.0 mg/kg/injection, schedule: Q04DX002 (ip), vehicle: saline with Tween-80): 104 % of control

[Cl][Pd]([Cl])([Cl])[Cl]
T/C (dose: 12.5 mg/kg/injection, schedule: Q04DX003 (ip), vehicle: saline): 95 % of control
T/C (dose: 25.0 mg/kg/injection, schedule: Q04DX003 (ip), vehicle: saline): 98 % of control
T/C (dose: 50.0 mg/kg/injection, schedule: Q04DX003 (ip), vehicle: saline): 102 % of control
T/C [3]: 90 % of control

C#CCOCCC(=O)O
T/C (dose: 100.0 mg/kg/injection, schedule: Q04DX003 (ip), vehicle: acetone): 106 % of control

Cc1ccc(-c2nc(N)[nH]c(=O)c2CCCN(c2ccccc2)S(=O)(=O)c2ccc(C)cc2)cc1
T/C [4]: 102 % of control
T/C (dose: 200.0 mg/kg/injection, schedule: Q04DX003 (ip), vehicle: Klucel (hydroxypropylcellulose) (HPC)): 101 % of control
T/C (dose: 400.0 mg/kg/injection, schedule: Q04DX003 (ip), vehicle: Klucel (hydroxypropylcellulose) (HPC)): 102 % of control

Nc1nc2c(ncn2-c2ccccc2Cl)c(=O)[nH]1
T/C [1]: 95 % of control
T/C [2]: 92 % of control
T/C (dose: 400.0 mg/kg/injection, schedule: Q01DX001 (ip), vehicle: saline with Tween-80): 100 % of control

O=C(NCCF)NC1CS(=O)(=O)CS(=O)(=O)C1
T/C (dose: 9.5 mg/kg/injection, schedule: Q01DX001 (ip), vehicle: other): 100 % of control
T/C (dose: 19.0 mg/kg/injection, schedule: Q01DX001 (ip), vehicle: other): 105 % of control
T/C (dose: 38.0 mg/kg/injection, schedule: Q01DX001 (ip), vehicle: other): 96 % of control

CCOC(=O)Nc1cc(Nc2ccc(Cl)cc2)c2nc(-c3ccc(Cl)cc3)c(-c3ccc(Cl)cc3)nc2n1
T/C (dose: 25.0 mg/kg/injection, schedule: Q04DX003 (ip), vehicle: Klucel (hydroxypropylcellulose) (HPC)): 104 % of control
T/C (dose: 50.0 mg/kg/injection, schedule: Q04DX003 (ip), vehicle: Klucel (hydroxypropylcellulose) (HPC)): 101 % of control
T/C [4]: 98 % of control

O=C1C=C(C2OC(CO)C(O)C2O)C(=O)N1 (stereo not drawn)
T/C (dose: 6.0 mg/kg/injection, schedule: Q01DX015 (ip), vehicle: saline): 113 % of control
T/C (dose: 6.0 mg/kg/injection, schedule: Q01DX Z (ip), vehicle: saline): 115 % of control
T/C (dose: 6.2 mg/kg/injection, schedule: Q01DX001 (ip), vehicle: saline): 97 % of control
T/C (dose: 9.0 mg/kg/injection, schedule: Q01DX001 (ip), vehicle: saline): 101 % of control
T/C (dose: 9.0 mg/kg/injection, schedule: Q01DX015 (ip), vehicle: saline): 113 % of control
T/C (dose: 9.0 mg/kg/injection, schedule: Q01DX Z (ip), vehicle: saline): 122 % of control
T/C (dose: 12.0 mg/kg/injection, schedule: Q01DX001 (ip), vehicle: saline): 100 % of control
T/C (dose: 12.5 mg/kg/injection, schedule: Q01DX001 (ip), vehicle: saline): 109 % of control
T/C (dose: 15.0 mg/kg/injection, schedule: Q01DX001 (ip), vehicle: saline): 106 % of control
T/C (dose: 15.0 mg/kg/injection, schedule: Q01DX015 (ip), vehicle: saline): 122 % of control
T/C (dose: 15.0 mg/kg/injection, schedule: Q01DX Z (ip), vehicle: saline): 110 % of control

C=C1C(=O)OC2CCCCCCC12 (stereo not drawn)
T/C (dose: 50.0 mg/kg/injection, schedule: Q01DX009 (ip), vehicle: saline): 95 % of control
T/C [5]: 95 % of control

CCOC(=O)c1cc([N+](=O)[O-])c(C)s1
T/C (dose: 100.0 mg/kg/injection, schedule: Q01DX009 (sc), vehicle: olive oil, sesame oil, peanut oil): 104 % of control
T/C (dose: 100.0 mg/kg/injection, schedule: Q04DX003 (sc), vehicle: olive oil, sesame oil, peanut oil): 101 % of control
T/C (dose: 200.0 mg/kg/injection, schedule: Q01DX009 (sc), vehicle: olive oil, sesame oil, peanut oil): 95 % of control
T/C (dose: 200.0 mg/kg/injection, schedule: Q04DX003 (sc), vehicle: olive oil, sesame oil, peanut oil): 107 % of control
T/C (dose: 400.0 mg/kg/injection, schedule: Q01DX009 (sc), vehicle: olive oil, sesame oil, peanut oil): 90 % of control
T/C (dose: 400.0 mg/kg/injection, schedule: Q04DX003 (sc), vehicle: olive oil, sesame oil, peanut oil): 106 % of control

O=C(O)CCc1ccsc1
T/C [6]: 94 % of control
T/C [7]: 100 % of control
T/C [8]: 102 % of control

CSC1SC(C)CC(C)S1 (stereo not drawn)
T/C (dose: 12.5 mg/kg/injection, schedule: Q04DX002 (ip), vehicle: Klucel (hydroxypropylcellulose) (HPC)): 95 % of control
T/C (dose: 25.0 mg/kg/injection, schedule: Q04DX002 (ip), vehicle: Klucel (hydroxypropylcellulose) (HPC)): 92 % of control
T/C (dose: 50.0 mg/kg/injection, schedule: Q04DX002 (ip), vehicle: Klucel (hydroxypropylcellulose) (HPC)): 98 % of control

COc1ccc(NC(=O)Nc2cc(Cl)ccc2Cl)cc1
T/C [9]: 90 % of control
T/C [10]: 92 % of control
T/C [11]: 92 % of control

CC(C)C1C(C(N)=O)C(=O)OC1(C)C (stereo not drawn)
T/C [6]: 96 % of control
T/C [7]: 98 % of control
T/C [8]: 96 % of control

CC1=C(C#N)C2(CCN(C)CC2)C(C#N)=C(C)N1
T/C (dose: 75.0 mg/kg/injection, schedule: Q01DX001 (ip), vehicle: carboxymethylcellulose (CMC)): 105 % of control
T/C (dose: 75.0 mg/kg/injection, schedule: Q01DX001 (ip), vehicle: saline): 104 % of control
T/C (dose: 150.0 mg/kg/injection, schedule: Q01DX001 (ip), vehicle: carboxymethylcellulose (CMC)): 109 % of control

CN1CCN=C1c1ccc(NC(=O)c2cccc(C(=O)Nc3ccc(C4=NCCN4C)cc3)c2)cc1
T/C (dose: 1.88 mg/kg/injection, schedule: Q01DX Z (ip), vehicle: saline): 107 % of control
T/C (dose: 3.75 mg/kg/injection, schedule: Q01DX Z (ip), vehicle: saline): 101 % of control
T/C (dose: 7.5 mg/kg/injection, schedule: Q01DX Z (ip), vehicle: saline): 122 % of control
T/C (dose: 30.0 mg/kg/injection, schedule: Q01DX Z (ip), vehicle: saline): 154 % of control
T/C (dose: 60.0 mg/kg/injection, schedule: Q01DX Z (ip), vehicle: saline): 234 % of control
T/C (dose: 120.0 mg/kg/injection, schedule: Q01DX Z (ip), vehicle: saline): 171 % of control
T/C (dose: 240.0 mg/kg/injection, schedule: Q01DX Z (ip), vehicle: saline): 119 % of control
T/C (dose: 480.0 mg/kg/injection, schedule: Q01DX Z (ip), vehicle: saline): 106 % of control

O=C(O)c1c(Cl)cccc1Cl
T/C (dose: 25.0 mg/kg/injection, schedule: Q01DX009 (ip), vehicle: saline with Tween-80): 92 % of control
T/C (dose: 50.0 mg/kg/injection, schedule: Q01DX009 (ip), vehicle: saline with Tween-80): 93 % of control
T/C (dose: 100.0 mg/kg/injection, schedule: Q01DX009 (ip), vehicle: saline with Tween-80): 93 % of control and 87 % of control
T/C [9]: 98 % of control
T/C [10]: 95 % of control
T/C [11]: 95 % of control

Cc1nccc(=O)[nH]1
T/C [5]: 99 % of control
T/C [3]: 106 % of control
T/C (dose: 200.0 mg/kg/injection, schedule: Q01DX009 (ip), vehicle: saline): 99 % of control
T/C (dose: 200.0 mg/kg/injection, schedule: Q04DX003 (ip), vehicle: saline): 106 % of control
T/C (dose: 400.0 mg/kg/injection, schedule: Q04DX003 (ip), vehicle: saline): 92 % of control
